The text below walks through data of patent US20250129096A1, “ANNULATED 2-AMINO-3-CYANO THIOPHENES AND DERIVATIVES FOR THE TREATMENT OF CANCER” (Boehringer Ingelheim Int'l GmbH Corp., priority 2021, published 2025).

≈ marks a conversion by molar mass, not a printed value. Where two headings read alike, the source gives them in different places.

The nature of series [1]: Metabolic (microsomal) stability assay, HLM. The series is classed as in vitro ADME. The settings on record: human liver microsomes, 1 μM test compound, predicted clearance as percent of liver blood flow. How it is done: The metabolic degradation of the test compound is assayed at 37° C. with pooled liver microsomes (mouse (MLM), rat (RLM) or human (HLM)). The final incubation volume of 48 μL per time point contains TRIS buffer (pH 7.5; 0.1 M), magnesium chloride (6.5 mM), microsomal protein (0.5 mg/mL for mouse/rat, 1 mg/mL for human specimens) and the test compound at a final concentration of 1 μM. Following a short preincubation period at 37° C., the reactions are initiated by addition of 12 μL beta-nicotinamide adenine dinucleotide phosphate, reduced form (NADPH, 10 mM) and terminated by transferring an aliquot into solvent after different time points (0, 5, 15, 30, 60 min). Additionally, the NADPH-independent degradation is monitored in incubations without NADPH, terminated at the last time point by addition of acetonitrile. The quenched incubations are pelleted by centrifugation (4,000 rpm, 15 min). An aliquot of the supernatant is assayed by LC-MS/MS to quantify the concentration of parent compound in the individual samples.
In vitro intrinsic clearance (CLint, in vitro) is calculated from the time course of the disappearance of the test drug during the microsomal incubation. Each plot is fitted to the first-order elimination rate constant as C(t)=C0*exp(−ke*t), where C(t) and C0 are the concentration of unchanged test drug at incubation time t and that at preincubation and ke is the disappearance rate constant of the unchanged drug. Subsequently, CLint, in vitro (μL min^−1·amount protein) values are converted to predicted CLint, in vivo (mL min^−1 kg^−1) from incubation parameters according to the equation CLint, in vivo=CLint, in vitro×(incubation volume (ml)/amount protein (mg))×(amount protein (mg)/g liver tissue)×(liver weight/body wt.). For better across species comparison the predicted clearance is expressed as percent of the liver blood flow [% QH] (mL min^−1 kg^−1) in the individual species. In general, high stability (corresponding to low % QH) of the compounds across species is desired.

Series [2] can be described thus: Solubility measurement (DMSO solution precipitation method). Format: physicochemical. As to conditions: aqueous buffer, kinetic from dmso stock, ambient temperature. How it is done:
The DMSO solution is diluted with an aqueous medium (McIlvaine buffer with pH=4.5 or 6.8) to a final concentration of 250 μM. After 24 h of shaking at ambient temperature a potentially formed precipitate is removed by filtration. The concentration of the test compound in the filtrate is determined by LC-UV methods by calibrating the signal to the signal of a reference solution with complete dissolution of the test compound in acetonitrile/water (1:1) with known concentration.

The target in the next series is T1, KRAS (G12D)::SOS1 (Homo sapiens, UniProt P01116, G12D).
T1 construct: KRAS (G12D) 1-169, N-terminal 6His-tag, C-terminal avi-tag; 6His-tag (N); purchased Xtal BioStructures, Inc. (KRAS G12D); Viva Biotech Ltd (SOS1)
T1 sequence (P01116 1-169 isoform P01116-2 G12D): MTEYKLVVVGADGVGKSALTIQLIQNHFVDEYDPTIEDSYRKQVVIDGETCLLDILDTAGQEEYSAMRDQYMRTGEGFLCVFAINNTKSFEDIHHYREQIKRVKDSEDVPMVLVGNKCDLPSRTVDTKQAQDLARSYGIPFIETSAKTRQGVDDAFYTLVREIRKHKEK
Put plainly: KRAS::SOS1 AlphaScreen binding assay, KRAS G12D. As for the experimental part: (§1) Low IC50 values in this assay setting are indicative of strong inhibition of protein-protein interaction between SOS1 and KRAS:
(§2) These assays measure the inhibitory effect of compounds on KRAS mutant protein-protein interactions using the Alpha Screen technology by Perkin Elmer.
(§3) For the chosen highest assay concentration of 100 μM, 150 nL of compound solution are transferred from a 10 mM DMSO compound stock solution. A series of eleven fivefold dilutions per compound are transferred to the assay plate, compound dilutions are tested in duplicates. DMSO are added as backfill to a total volume of 150 nL.
(§4) The assays run on a fully automated robotic system in a darkened room below 100 Lux. To 150 nl of compound dilution 10 μl of a mix including KRAS mutant protein, SOS1 (final assay concentrations see above) and GDP nucleotide (Sigma G7127; final assay concentration 10 μM) in assay buffer (1×PBS, 0.1% BSA, 0.05% Tween 20) are added into columns 1-24. After 30 minutes incubation time 5 μl of Alpha Screen bead mix in assay buffer are added into columns 1-23.
(§5) Plates are kept at room temperature in a darkened incubator. After an additional 60 minutes incubation time the signal is measured in a PerkinElmer Envision HTS Multilabel Reader using the AlphaScreen specs from PerkinElmer.
(§6) IC50 values are calculated and analyzed with Boehringer Ingelheim's MEGALAB IC50 application using a 4 parametric logistic model.

The target in the next series is T2, KRAS (WT)::SOS1 (Homo sapiens, UniProt P01116, C118S).
T2 construct: KRAS (WT) 1-169, N-terminal 6His-tag for purification, cleaved off; 6His-tag (N, cleaved yes); TEV cleavage site
T2 sequence (P01116 1-169 isoform P01116-2 C118S): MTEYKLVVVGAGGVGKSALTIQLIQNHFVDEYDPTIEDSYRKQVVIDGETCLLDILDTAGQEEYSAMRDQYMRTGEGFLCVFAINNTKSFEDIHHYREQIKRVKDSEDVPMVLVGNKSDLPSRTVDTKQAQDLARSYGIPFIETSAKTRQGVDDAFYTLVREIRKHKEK
The series can be described thus: KRAS::SOS1 AlphaScreen binding assay, KRAS WT. As for the experimental part: as §1, §2, §3, §4, §5, §6
A general note: Alpha assays give light when donor and acceptor beads are brought close together.

The target in the next series is KRAS G12D Ba/F3 cells (Homo sapiens, UniProt P01116, G12D, cells depend on it). The series can be described thus: Ba/F3 proliferation assay, KRAS G12D. The series is classed as cell-based. The settings on record: 72 h, AlamarBlue; read-out: KRAS G12D Ba/F3 IC50. How it is done: (§7) To generate KRASG12-dependent Ba/F3 models, Ba/F3 cells are transduced with retroviruses containing vectors that harbor KRASG12 isoforms. Platinum-E cells (Cell Biolabs) are used for retrovirus packaging. Retrovirus is added to Ba/F3 cells. To ensure infection, 4 μg/mL polybrene is added and cells are spinfected. […] Cells with an infection efficiency of 10% to 20% are further cultivated and puromycin selection with 1 μg/mL is initiated. As a control, parental Ba/F3 cells are used to show selection status. Selection is considered successful when parental Ba/F3 cells cultures died. To evaluate the transforming potential of KRASG12 mutations, the growth medium is no longer supplemented with IL-3. Ba/F3 cells harboring the empty vector are used as a control. Approximately ten days before conducting the experiments, puromycin is left out. […] All treatments are performed in technical duplicates. […] AlamarBlue™(ThermoFisher), a viability stain, is added and fluorescence measured in the PerkinElmer Envision HTS Multilabel Reader. The raw data are imported into and analyzed with the Boehringer Ingelheim proprietary software MegaLab (curve fitting based on the program PRISM, GraphPad Inc.).
KRAS G12D Ba/F3 cells, sequence (P01116 whole entry G12D, canonical isoform): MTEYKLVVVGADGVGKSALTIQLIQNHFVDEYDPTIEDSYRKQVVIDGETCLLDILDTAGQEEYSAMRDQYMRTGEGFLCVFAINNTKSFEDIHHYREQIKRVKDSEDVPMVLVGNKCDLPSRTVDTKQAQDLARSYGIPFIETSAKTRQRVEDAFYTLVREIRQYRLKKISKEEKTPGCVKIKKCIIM

The target in the next series is KRAS G12C Ba/F3 cells (Homo sapiens, UniProt P01116, G12C, cells depend on it). Put plainly: Ba/F3 proliferation assay, KRAS G12C. Format: cell-based. The settings on record: 72 h, AlamarBlue; read-out: KRAS G12C Ba/F3 IC50. As for the experimental part:
as §7

A further series concerns the target T3, KRAS (G12C)::SOS1 (Homo sapiens, UniProt P01116, C118S/C51S/C80L/G12C).
T3 construct: KRAS (G12C) 1-169, N-terminal 6His-tag for purification, cleaved off; 6His-tag (N, cleaved yes)
Put plainly: KRAS::SOS1 AlphaScreen binding assay, KRAS G12C. How it is done: as §1, §2, §3, §4, §5, §6

A further series deals with KRAS G12V Ba/F3 cells (Homo sapiens, UniProt P01116, G12V, cells depend on it). Put plainly: Ba/F3 proliferation assay, KRAS G12V. Format: cell-based. The settings on record: 72 h, AlamarBlue; read-out: KRAS G12V Ba/F3 IC50. How it is done:
as §7
(Resazurin is reduced to fluorescent resorufin, in cell work by metabolically active cells.)

[3] abbreviates: McIlvaine buffer pH 4.5, 24 h, read-out: solubility pH 4.5.
Where [4] appears, read: McIlvaine buffer pH 6.8, 24 h, read-out: solubility pH 6.8.

T3 sequence (P01116 1-169 isoform P01116-2 G12C/C51S/C80L/C118S): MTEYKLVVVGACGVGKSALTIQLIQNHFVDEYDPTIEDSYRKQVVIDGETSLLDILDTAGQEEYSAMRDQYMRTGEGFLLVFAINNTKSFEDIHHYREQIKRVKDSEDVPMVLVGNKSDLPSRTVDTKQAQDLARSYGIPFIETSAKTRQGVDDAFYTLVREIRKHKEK
KRAS G12C Ba/F3 cells, sequence (P01116 whole entry G12C): as the sequence (P01116 whole entry G12D, canonical isoform) above, with D12C counted along it
KRAS G12V Ba/F3 cells, sequence (P01116 whole entry G12V): as the sequence (P01116 whole entry G12D, canonical isoform) above, with D12V counted along it

One may read the solubility as the dissolved amount per volume that the medium holds. As usually defined, the IC50 is the midpoint of a concentration-inhibition curve. High values mean weaker potency, low ones greater potency. `C[C@H]1CN(C2CCOCC2)CCCN1c1nccc(-c2noc3c2CCC[C@@]32CCCc3sc(N)c(C#N)c32)n1` (single isomer, unassigned) [IIg-1]: the “HLM QH” value in series [1] was greater than 88%. For the same compound, the solubility at 24 h was 107 µg/mL (≈ 191 µM) in series [2] (setting [3]) and less than 1 µg/mL in series [2] (setting [4]). Further, the IC50 was 4 nM at KRAS (G12D)::SOS1, 25 nM at KRAS (WT)::SOS1 and 10 nM at KRAS (G12C)::SOS1. In addition, the results for the GI50 on KRAS G12D Ba/F3 cells and on KRAS G12C Ba/F3 cells were 23 nM and 10 nM, respectively.
As for `C[C@H](Oc1nccc(-c2n[nH]c3c2CCCC32CCCc3sc(N)c(C#N)c32)n1)[C@@H]1CCCN1C` (stereo partly drawn) [IIIa-1], the IC50 was determined as 16 nM on KRAS (G12D)::SOS1 and 28 nM at KRAS (G12C)::SOS1. Moreover, the GI50 at KRAS G12D Ba/F3 cells is 697 nM; at KRAS G12C Ba/F3 cells, 930 nM.
Take `C[C@H]1CNCCCN1c1nccc(-c2nn(C)c3c2CCC32CCCc3sc(N)c(C#N)c32)n1` (stereo partly drawn) [IIIb-1]: in series [1], the “HLM QH” value is on record as 31%. Besides, the GI50 at KRAS G12V Ba/F3 cells turned out to be 10400 nM; on KRAS G12D Ba/F3 cells it was 15100 nM; on KRAS G12C Ba/F3 cells it was 11500 nM. The concentration for half-maximal inhibition (IC50) on KRAS (G12D)::SOS1 worked out at 1770 nM; on KRAS (G12C)::SOS1, 1590 nM.
As to `C[C@H](Oc1nccc(-c2nnn3c2CCCC32CCCc3sc(N)c(C#N)c32)n1)[C@@H]1CCCN1C` (stereo partly drawn) [IVa-1], the “HLM QH” value in series [1] was 80%. The IC50 on KRAS (G12D)::SOS1 was determined as 18 nM; at KRAS (G12C)::SOS1 it was 56 nM. Further, the GI50 on KRAS G12D Ba/F3 cells worked out at 381 nM; on KRAS G12C Ba/F3 cells, 521 nM.
As to `C[C@H]1CNCCCN1c1cccc(-c2onc3c2CCC[C@@]32CCCc3sc(N)c(C#N)c32)n1` [Ib-3], the “HLM QH” value in series [1] is reported as less than 24%. Also, the figures for the IC50 at KRAS (G12D)::SOS1 and on KRAS (G12C)::SOS1 were 8 nM and 19 nM, respectively. Besides, at KRAS G12C Ba/F3 cells, the GI50 is 317 nM.
As to `C[C@H]1CN(CC2CC2)CCCN1c1nccc(-c2onc3c2CCC[C@@]32CCCc3sc(N)c(C#N)c32)n1` [Ig-1], the “HLM QH” value in series [1] is reported as greater than 88%. Moreover, the solubility at 24 h in series [2] (setting [3]) came to 23 µg/mL (≈ 43.4 µM); in series [2] (setting [4]), 10 µg/mL (≈ 18.9 µM). Also, the IC50 amounted to 3 nM at KRAS (G12D)::SOS1 and 8 nM on KRAS (G12C)::SOS1. Moreover, the GI50 at KRAS G12D Ba/F3 cells came out at 48 nM; at KRAS G12C Ba/F3 cells, 89 nM.
`C[C@H]1CN(C2CCOC2)CCCN1c1nccc(-c2onc3c2CCC[C@@]32CCCc3sc(N)c(C#N)c32)n1` (stereo partly drawn) [Ig-2]: the solubility at 24 h is greater than 110 µg/mL in series [2] (setting [3]) and less than 1 µg/mL in series [2] (setting [4]). Further, the IC50 at KRAS (G12D)::SOS1 is 4 nM; at KRAS (G12C)::SOS1 it was 12 nM. Further, the GI50 at KRAS G12D Ba/F3 cells is 174 nM; on KRAS G12C Ba/F3 cells, 123 nM.
Turning to `C[C@@H](O)CN1CCCN(c2nccc(-c3onc4c3CCC[C@@]43CCCc4sc(N)c(C#N)c43)n2)[C@@H](C)C1` [Ig-4], the “HLM QH” value in series [1] is greater than 88%. Also, the results for the solubility at 24 h in series [2] (setting [3]) and in series [2] (setting [4]) were greater than 153 µg/mL and 76 µg/mL (≈ 142 µM), respectively. The IC50 on KRAS (G12D)::SOS1 is 3 nM; on KRAS (WT)::SOS1 it was 21 nM; on KRAS (G12C)::SOS1, 6 nM. Also, the values for the GI50 at KRAS G12D Ba/F3 cells and at KRAS G12C Ba/F3 cells were 88 nM and 108 nM, respectively.
